# Results published in ChEMBL document CHEMBL5584294, “Adpressins A-G: Oligophenalenone Dimers from Talaromyces adpressus” (J Nat Prod, 2024).
# pIC50: −log10 of the molar value.
# Key:
# B-cell line = assay: Immunosuppressive activity in BALB/c mouse B-lymphocytes assessed as inhibition of LPS-induced cell proliferation pretreated with LPS for 24 hrs followed by compound addition and measured after 48 hrs by CCK-8 assay; assay type: functional, cell-based
# T-cell [1] = assay: Immunosuppressive activity in BALB/c mouse T-lymphocytes assessed as inhibition of ConA-induced cell proliferation pretreated with Concanavalin A for 24 hrs followed by compound addition and measured after 48 hrs by CCK-8 assay; assay type: functional, cell-based
# T-cell [2] = assay: Immunosuppressive activity in BALB/c mouse T-lymphocytes assessed as reduction in ConA-induced CD4 subpopulation by measuring CD3negativeCD4negative cells at 5 uM pretreated with Concanavalin A for 24 hrs followed by compound addition and measured after 48 hrs by flow cytometry analysis (reference value: 0%); assay type: functional; parameters: scale not given: the % may be the effect or the level left
# T-cell [3] = assay: Immunosuppressive activity in BALB/c mouse T-lymphocytes assessed as reduction in ConA-induced CD4 subpopulation by measuring CD3positiveCD4negative cells at 5 uM pretreated with Concanavalin A for 24 hrs followed by compound addition and measured after 48 hrs by flow cytometry analysis (reference value: 12.2%); assay type: functional; parameters: scale not given: the % may be the effect or the level left
# T-cell [4] = assay: Immunosuppressive activity in BALB/c mouse T-lymphocytes assessed as reduction in ConA-induced CD4 subpopulation by measuring CD3positiveCD4positive cells at 5 uM pretreated with Concanavalin A for 24 hrs followed by compound addition and measured after 48 hrs by flow cytometry analysis (reference value: 87.8%); assay type: functional; parameters: scale not given: the % may be the effect or the level left
# T-cell [5] = assay: Immunosuppressive activity in BALB/c mouse T-lymphocytes assessed as reduction in ConA-induced CD4 subpopulation by measuring CD3negativeCD4positive cells at 5 uM pretreated with Concanavalin A for 24 hrs followed by compound addition and measured after 48 hrs by flow cytometry analysis (reference value: 0%); assay type: functional; parameters: scale not given: the % may be the effect or the level left
# T-cell [6] = assay: Immunosuppressive activity in BALB/c mouse T-lymphocytes assessed as reduction in ConA-induced CD8 subpopulation by measuring CD3negativeCD8negative cells at 5 uM pretreated with Concanavalin A for 24 hrs followed by compound addition and measured after 48 hrs by flow cytometry analysis (reference value: 0%); assay type: functional; parameters: scale not given: the % may be the effect or the level left
# T-cell [7] = assay: Immunosuppressive activity in BALB/c mouse T-lymphocytes assessed as reduction in ConA-induced CD8 subpopulation by measuring CD3positiveCD8negative cells at 5 uM pretreated with Concanavalin A for 24 hrs followed by compound addition and measured after 48 hrs by flow cytometry analysis (reference value: 70.9%); assay type: functional; parameters: scale not given: the % may be the effect or the level left
# T-cell [8] = assay: Immunosuppressive activity in BALB/c mouse T-lymphocytes assessed as reduction in ConA-induced CD8 subpopulation by measuring CD3positiveCD8positive cells at 5 uM pretreated with Concanavalin A for 24 hrs followed by compound addition and measured after 48 hrs by flow cytometry analysis (reference value: 29.1%); assay type: functional; parameters: scale not given: the % may be the effect or the level left
# T-cell [9] = assay: Immunosuppressive activity in BALB/c mouse T-lymphocytes assessed as reduction in ConA-induced CD8 subpopulation by measuring CD3negativeCD8positive cells at 5 uM pretreated with Concanavalin A for 24 hrs followed by compound addition and measured after 48 hrs by flow cytometry analysis (reference value: 0%); assay type: functional; parameters: scale not given: the % may be the effect or the level left
# T-cell [10] = assay: Immunosuppressive activity in ConA-induced BALB/c mouse T-lymphocytes assessed as Treg cell subsets by measuring CD25negativeFOXP3negative cells at 5 uM pretreated with Concanavalin A for 24 hrs followed by compound addition and measured after 48 hrs by flow cytometry analysis (reference value: 27.2%); assay type: functional
# T-cell [11] = assay: Immunosuppressive activity in ConA-induced BALB/c mouse T-lymphocytes assessed as Treg cell subsets by measuring CD25positiveFOXP3negative cells at 5 uM pretreated with Concanavalin A for 24 hrs followed by compound addition and measured after 48 hrs by flow cytometry analysis (reference value: 66.9%); assay type: functional
# T-cell [12] = assay: Immunosuppressive activity in ConA-induced BALB/c mouse T-lymphocytes assessed as Treg cell subsets by measuring CD25positiveFOXP3positive cells at 5 uM pretreated with Concanavalin A for 24 hrs followed by compound addition and measured after 48 hrs by flow cytometry analysis (reference value: 5.7%); assay type: functional
# T-cell [13] = assay: Immunosuppressive activity in ConA-induced BALB/c mouse T-lymphocytes assessed as Treg cell subsets by measuring CD25negativeFOXP3positive cells at 5 uM pretreated with Concanavalin A for 24 hrs followed by compound addition and measured after 48 hrs by flow cytometry analysis (reference value: 0.2%); assay type: functional
# T-cell [14] = assay: Immunosuppressive activity in BALB/c mouse T-lymphocytes assessed as reduction in ConA-induced CD4 subpopulation by measuring CD3negativeCD4negative cells at 2.5 uM pretreated with Concanavalin A for 24 hrs followed by compound addition and measured after 48 hrs by flow cytometry analysis (reference value: 0%); assay type: functional; parameters: scale not given: the % may be the effect or the level left
# T-cell [15] = assay: Immunosuppressive activity in BALB/c mouse T-lymphocytes assessed as reduction in ConA-induced CD4 subpopulation by measuring CD3positiveCD4negative cells at 2.5 uM pretreated with Concanavalin A for 24 hrs followed by compound addition and measured after 48 hrs by flow cytometry analysis (reference value: 12.2%); assay type: functional; parameters: scale not given: the % may be the effect or the level left
# T-cell [16] = assay: Immunosuppressive activity in BALB/c mouse T-lymphocytes assessed as reduction in ConA-induced CD4 subpopulation by measuring CD3positiveCD4positive cells at 2.5 uM pretreated with Concanavalin A for 24 hrs followed by compound addition and measured after 48 hrs by flow cytometry analysis (reference value: 87.8%); assay type: functional; parameters: scale not given: the % may be the effect or the level left
# T-cell [17] = assay: Immunosuppressive activity in BALB/c mouse T-lymphocytes assessed as reduction in ConA-induced CD4 subpopulation by measuring CD3negativeCD4positive cells at 2.5 uM pretreated with Concanavalin A for 24 hrs followed by compound addition and measured after 48 hrs by flow cytometry analysis (reference value: 0%); assay type: functional; parameters: scale not given: the % may be the effect or the level left
# T-cell [18] = assay: Immunosuppressive activity in BALB/c mouse T-lymphocytes assessed as reduction in ConA-induced CD8 subpopulation by measuring CD3negativeCD8negative cells at 2.5 uM pretreated with Concanavalin A for 24 hrs followed by compound addition and measured after 48 hrs by flow cytometry analysis (reference value: 0%); assay type: functional; parameters: scale not given: the % may be the effect or the level left
# T-cell [19] = assay: Immunosuppressive activity in BALB/c mouse T-lymphocytes assessed as reduction in ConA-induced CD8 subpopulation by measuring CD3positiveCD8negative cells at 2.5 uM pretreated with Concanavalin A for 24 hrs followed by compound addition and measured after 48 hrs by flow cytometry analysis (reference value: 70.9%); assay type: functional; parameters: scale not given: the % may be the effect or the level left
# T-cell [20] = assay: Immunosuppressive activity in BALB/c mouse T-lymphocytes assessed as reduction in ConA-induced CD8 subpopulation by measuring CD3positiveCD8positive cells at 2.5 uM pretreated with Concanavalin A for 24 hrs followed by compound addition and measured after 48 hrs by flow cytometry analysis (reference value: 29.1%); assay type: functional; parameters: scale not given: the % may be the effect or the level left
# T-cell [21] = assay: Immunosuppressive activity in BALB/c mouse T-lymphocytes assessed as reduction in ConA-induced CD8 subpopulation by measuring CD3negativeCD8positive cells at 2.5 uM pretreated with Concanavalin A for 24 hrs followed by compound addition and measured after 48 hrs by flow cytometry analysis (reference value: 0%); assay type: functional; parameters: scale not given: the % may be the effect or the level left
# T-cell [22] = assay: Immunosuppressive activity in ConA-induced BALB/c mouse T-lymphocytes assessed as Treg cell subsets by measuring CD25negativeFOXP3negative cells at 2.5 uM pretreated with Concanavalin A for 24 hrs followed by compound addition and measured after 48 hrs by flow cytometry analysis (reference value: 27.2%); assay type: functional
# T-cell [23] = assay: Immunosuppressive activity in ConA-induced BALB/c mouse T-lymphocytes assessed as Treg cell subsets by measuring CD25positiveFOXP3negative cells at 2.5 uM pretreated with Concanavalin A for 24 hrs followed by compound addition and measured after 48 hrs by flow cytometry analysis (reference value: 66.9%); assay type: functional
# T-cell [24] = assay: Immunosuppressive activity in ConA-induced BALB/c mouse T-lymphocytes assessed as Treg cell subsets by measuring CD25positiveFOXP3positive cells at 2.5 uM pretreated with Concanavalin A for 24 hrs followed by compound addition and measured after 48 hrs by flow cytometry analysis (reference value: 5.7%); assay type: functional
# T-cell [25] = assay: Immunosuppressive activity in ConA-induced BALB/c mouse T-lymphocytes assessed as Treg cell subsets by measuring CD25negativeFOXP3positive cells at 2.5 uM pretreated with Concanavalin A for 24 hrs followed by compound addition and measured after 48 hrs by flow cytometry analysis (reference value: 0.2%); assay type: functional
compound,measurement,setting,value
COC(=O)CCCn1cc2c3c(c(C)cc(O)c3c1=O)C1=C(C2=O)[C@]23COC(=O)c4c(O)cc(C)c(c42)C(=O)[C@H]1[C@@H]3OC(C)=O,pIC50,B-cell line,5.80
same,pIC50,T-cell [1],5.59
same,Activity,T-cell [2],0%
same,Activity,T-cell [3],0%
same,Activity,T-cell [4],22.3%
same,Activity,T-cell [5],77.7%
same,Activity,T-cell [6],0%
same,Activity,T-cell [7],69.9%
same,Activity,T-cell [8],30.1%
same,Activity,T-cell [9],0%
same,Activity,T-cell [10],20.8%
same,Activity,T-cell [11],75.4%
same,Activity,T-cell [12],3.3%
same,Activity,T-cell [13],0.4%
same,Activity,T-cell [14],0%
same,Activity,T-cell [15],16.8%
same,Activity,T-cell [16],83.2%
same,Activity,T-cell [17],0%
same,Activity,T-cell [18],0%
same,Activity,T-cell [19],68.6%
same,Activity,T-cell [20],31.4%
same,Activity,T-cell [21],0%
same,Activity,T-cell [22],18.1%
same,Activity,T-cell [23],78.3%
same,Activity,T-cell [24],3.5%
same,Activity,T-cell [25],0.1%
